Assays:
Assay in all cases: Test A pre-/postemergence plant response
Type in all cases: in vivo
[1] = tested on: large crabgrass (Digitaria sanguinalis)
From the text: (§1) Seeds of barnyardgrass (Echinochloa crus-galli), large crabgrass (Digitaria sanguinalis), giant foxtail (Setaria faberii), morningglory (Ipomoea spp.), pigweed (Amaranthus retroflexus), velvetleaf (Abutilon theophrasti), wheat (Triticum aestivum) and corn (Zea mays) were planted into a blend of loam soil and sand and treated preemergence with a directed soil spray using test chemicals formulated in a non-phytotoxic solvent mixture which included a surfactant. At the same time these species were also treated with postemergence applications of test compounds formulated in the same manner.
(§2) Plants ranged in height from two to ten cm and were in the one- to two-leaf stage for the postemergence treatment. Treated plants and untreated controls were maintained in a greenhouse for approximately ten days, after which time all treated plants were compared to untreated controls and visually evaluated for injury. Plant response ratings, summarized in Table A, are based on a 0 to 100 scale where 0 is no effect and 100 is complete control. A dash (-) response means no test result.

[2] = tested on: velvetleaf (Abutilon theophrasti)
From the text: as §1, §2

[3] = tested on: morningglory (Ipomoea spp.)
From the text: as §1, §2

corn (Zea mays) = tested on: corn (Zea mays)
From the text: as §1, §2

[4] = tested on: giant foxtail (Setaria faberii)
From the text: as §1, §2

[5] = tested on: barnyardgrass (Echinochloa crus-galli)
From the text: as §1, §2

[6] = tested on: wheat (Triticum aestivum)
From the text: as §1, §2

[7] = tested on: pigweed (Amaranthus retroflexus)
From the text: as §1, §2

[8] = Postemergence, 125 g ai/ha, 0 to 100 scale where 0 is no effect and 100 is complete control
[9] = Postemergence, 500 g ai/ha, visual injury, 0 to 100 scale (0 no effect, 100 complete control), approx. ten days
[10] = Preemergence, 125 g ai/ha, 0 to 100 scale, 0 = no effect, 100 = complete control
[11] = Preemergence, 500 g ai/ha, 0 to 100 scale, 0 = no effect, 100 = complete control
[12] = Postemergence, 500 g ai/ha, 0 to 100 scale, 0 = no effect, 100 = complete control, approx. ten days
[13] = Preemergence, 500 g ai/ha, visual injury, 0 to 100 scale (0 no effect, 100 complete control), approx. ten days

Structure (SMILES)	Plant response rating, Crabgrass, Large [1, 8]	Plant response rating, Crabgrass, Large [1, 10]	Plant response rating, Velvetleaf [2, 8]	Plant response rating, Velvetleaf [2, 10]	Plant response rating, Velvetleaf [2, 11]	Plant response rating, Morningglory [3, 8]	Plant response rating, Morningglory [3, 10]	Plant response rating, Corn (corn (Zea mays); [8])	Plant response rating, Corn (corn (Zea mays); [10])	Plant response rating, Foxtail, Giant [4, 8]	Plant response rating, Foxtail, Giant [4, 10]	Plant response rating, Barnyardgrass [5, 8]	Plant response rating, Barnyardgrass [5, 10]	Plant response rating, Wheat [6, 8]	Plant response rating, Wheat [6, 10]	Plant response rating, Wheat [6, 11]	Plant response rating, Pigweed [7, 8]	Plant response rating, Pigweed [7, 10]	other results
Cc1ccc(-n2c(-c3cccc(F)c3)ncc(C(=O)C3=C(O)CCCC3=O)c2=O)cc1 [Compound 202]	70	50	100	70	100	100	0	10	20	80	50	90	20	20	0	40	100	90	Crabgrass, Large plant response rating [1, 9]: 100; Plant response rating, Crabgrass, Large [1, 11]: 100; Velvetleaf plant response rating [2, 9]: 100; Morningglory plant response rating [3, 9]: 100; Plant response rating, Morningglory [3, 11]: 100; Corn plant response rating (corn (Zea mays); [9]): 30; Plant response rating, Corn (corn (Zea mays); [11]): 40; Foxtail, Giant plant response rating [4, 9]: 100; Plant response rating, Foxtail, Giant [4, 11]: 100; Barnyardgrass plant response rating [5, 9]: 100; Plant response rating, Barnyardgrass [5, 11]: 100; Wheat plant response rating [6, 9]: 50; Pigweed plant response rating [7, 9]: 100; Plant response rating, Pigweed [7, 11]: 100
CCCn1c(-c2ccc3c(c2)OCCO3)ncc(C(=O)C2=C(O)CCCC2=O)c1=O [Compound 149]	40	30	100	40	70	100	0	0	0	60	10	70	20	20	0	20	70	80	Plant response rating, Crabgrass, Large [1, 12]: 70; Plant response rating, Crabgrass, Large [1, 13]: 80; Plant response rating, Velvetleaf [2, 12]: 100; Plant response rating, Morningglory [3, 12]: 100; Plant response rating, Morningglory [3, 13]: 40; Plant response rating, Corn (corn (Zea mays); [12]): 30; Plant response rating, Corn (corn (Zea mays); [13]): 20; Plant response rating, Foxtail, Giant [4, 12]: 80; Plant response rating, Foxtail, Giant [4, 13]: 60; Plant response rating, Barnyardgrass [5, 12]: 90; Plant response rating, Barnyardgrass [5, 13]: 50; Plant response rating, Wheat [6, 12]: 50; Plant response rating, Pigweed [7, 12]: 100; Plant response rating, Pigweed [7, 13]: 100

From patent publication US8952024B2, “Herbicidal pyrimidone derivatives” (E I du Pont de Nemours and Company, priority 2009, dated 2015)
